Experimental data from patent US10682371B2, “Small molecule conjugates specifically activated in tumor microenvironment for targeting and use thereof” (priority 2014, dated 2020).
Read-outs that look alike come from different tables or passages of the source.

Columns and labels:
[1] = test system: Human breast cancer MDA-MB435 tumor tissue homogenate; assay type: biochemical
Method: (§1) At 37 °C, sample compounds were added into 100 μg acidized tumor tissue homogenates (pH6.0) in a concentration of 1 mg/ml.
(§2) At 37 °C, sample compounds were added into 100 μg acidized human breast cancer (MDA-MB435) tumor tissue homogenates (pH6.0) in a concentration of 1 mg/ml.
(§3) […], sample compounds were added into 100 μg acidized tumor tissue homogenates (pH6.0) in a concentration of 1 mg/ml.
as §2
(§4) At 37 °C, sample compounds were added into 100 μg acidized tumor tissue homogenates in a concentration of 1 mg/ml.
(§5) In the experiments, at 37 °C, compounds were added into proteases in 100 μg acidized tumor tissue homogenates in a concentration of 1 mg/ml. […] Meanwhile certain compounds produced in the screening were compared and their activation efficiency in same tissue was analyzed.
(§6) At 37° C., compounds were added into proteases in 100 μg acidized tumor tissue homogenates in a concentration of 1 mg/ml.

[2] = test system: Human pancreatic cancer Panc-1 tumor tissue homogenate; assay type: biochemical
Method: as §1, §3, §4, §5, §6

[3] = test system: Human colon cancer HT-29 tumor tissue homogenate; assay type: biochemical
Method: as §1, §3, §4, §5, §6

[4] = test system: Human renal cancer OS-RC-2 tumor tissue homogenate; assay type: biochemical
Method: as §1, §3, §4, §5, §6

[5] = test system: Human liver cancer Hepg2 tumor tissue homogenate; assay type: biochemical
Method: as §1, §3, §4, §5, §6

[6] = test system: Human prostate cancer PC-3 tumor tissue homogenate; assay type: biochemical
Method: as §1, §3, §4, §5, §6

[7] = test system: Human non-small cell lung cancer A549 tumor tissue homogenate; assay type: biochemical
Method: as §1, §3, §4, §5, §6

[8] = test system: Human ovarian cancer SK-OV-3 tumor tissue homogenate; assay type: biochemical
Method: as §1, §3, §4, §5, §6

[9] = test system: Human chronic leukemia K562 tumor tissue homogenate; assay type: biochemical
Method: as §1, §3, §4, §5, §6

Human heart = assay type: biochemical
tumor CD8+ T cells = assay type: in vivo, C57 mice
Method in brief: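 Flow cytometric ratio of CD8⁺ to CD45⁺ cells in dissociated tumour. Cell suspensions were labelled with CD45-PE and CD8-FITC for 1 h at room temperature, then washed twice in phosphate buffer with 1% fetal bovine serum.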

D121 lung tumor cells = assay type: in vivo, C57 mice; conditions: for Treatment effects on C57 mice, in words: compared to the control group and the other treatment groups; for Effect together with PDL1-antibody in promoting immunization and treatment, in words: combination with PDL1-antibody
Method in brief: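 Endpoint is tumor inhibition rate from tumor size (mm^3) after weekly drug treatment for 4 weeks, begun once s.c. tumors from 10^6 live D121 cells reached 0.3-0.4 cm. Before challenge, C57 mice received three i.p. doses of 5×10^5 irradiated D121 cells, two weeks apart, or saline.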

[10] = Table 27, immunized C57 mice, D121 lung tumor, drugs weekly for 4 weeks, Day 18
[11] = Table 39, immunized C57 mice, D121, drugs 13.2 μmol/kg, PDL1-antibody 5 μg/kg, weekly for 4 weeks, Day 18
[12] = D121 immunized C57 mice, drugs weekly for 4 weeks, Day 18 (Example 23)

## COCCOCCOCCOCCOCCOCCOCCOCCOCCOCCOCCOCC(=O)NCCCC[C@H](NC(=O)COCCOCCOCCOCCOCCOCCOCCOCCOCCOCCOCCOC)C(=O)N[C@H](C)C(=O)N[C@H](C)C(=O)N[C@H](CC(N)=O)C(=O)Nc1ccc(COC(=O)OC(C(=O)OC2C[C@@]3(O)[C@@H](OC(=O)c4ccccc4)[C@H]4[C@](C)(C(=O)[C@H](OC(C)=O)C(=C2C)C3(C)C)[C@@H](O)CC2OC[C@]24OC(C)=O)[C@@H](NC(=O)c2ccccc2)c2ccccc2)cc1 (some centres unmarked) [Compound A3]
[1]; Human breast cancer MDA-MB435, 1 mg/ml, acidized homogenate pH6.0, Paclitaxel release by HPLC
  Activation ratio (%) in homogenates from different tumor tissues: 93.4%
[1]; Table 24, acidized human breast cancer (MDA-MB435) tumor tissue homogenates pH6.0, 1 mg/ml, Paclitaxel release by HPLC
  activation efficiency (%): 94.5%
[2]; Human pancreatic cancer Panc-1, 1 mg/ml, acidized homogenate pH6.0, Paclitaxel release by HPLC
  Activation ratio (%) in homogenates from different tumor tissues: 94.5%
[3]; Human colon cancer HT-29, 1 mg/ml, acidized homogenate pH6.0, Paclitaxel release by HPLC
  Activation ratio (%) in homogenates from different tumor tissues: 94.6%
[4]; Human renal cancer OS-RC-2, 1 mg/ml, acidized homogenate pH6.0, Paclitaxel release by HPLC
  Activation ratio (%) in homogenates from different tumor tissues: 89.4%
[5]; Human liver cancer Hepg2, 1 mg/ml, acidized homogenate pH6.0, Paclitaxel release by HPLC
  Activation ratio (%) in homogenates from different tumor tissues: 86.5%
[6]; Human prostate cancer PC-3, 1 mg/ml, acidized homogenate pH6.0, Paclitaxel release by HPLC
  Activation ratio (%) in homogenates from different tumor tissues: 99.3%
[7]; Human non-small cell lung cancer A549, 1 mg/ml, acidized homogenate pH6.0, Paclitaxel release by HPLC
  Activation ratio (%) in homogenates from different tumor tissues: 84.4%
[8]; Human ovarian cancer SK-OV-3, 1 mg/ml, acidized homogenate pH6.0, Paclitaxel release by HPLC
  Activation ratio (%) in homogenates from different tumor tissues: 82.8%
[9]; Human chronic leukemia K562, 1 mg/ml, acidized homogenate pH6.0, Paclitaxel release by HPLC
  Activation ratio (%) in homogenates from different tumor tissues: 73.2%
Human heart; Human heart, 1 mg/ml, acidized homogenate pH6.0, Paclitaxel release by HPLC
  Activation ratio (%) in homogenates from different tumor tissues: none
Tumor CD8+ T cells; Table 27, CD8 positive cells in CD45 positive cells of tumor, flow cytometry, immunized C57 mice, D121
  CD8: CD45 (%): 17.3%
D121 lung tumor cells; [10]
  Size of tumor (mm^3) Day 18: 360.393 ± 312.7 mm^3
  inhibitory rate on tumor % Day 18: 78.65%
D121 lung tumor cells
  Treatment effects on C57 mice, in words: greatly improved

## COCCOCC(=O)NCCCC[C@H](NC(=O)COCCOC)C(=O)N[C@H](C)C(=O)N[C@H](C)C(=O)N[C@H](CC(N)=O)C(=O)Nc1ccc(COC(=O)OC(C(=O)OC2C[C@@]3(O)[C@@H](OC(=O)c4ccccc4)[C@H]4[C@](C)(C(=O)[C@H](O)C(=C2C)C3(C)C)[C@@H](O)CC2OC[C@]24OC(C)=O)[C@@H](NC(=O)OC(C)(C)C)c2ccccc2)cc1 (some centres unmarked) [Compound B1]
[1]; Table 34, Human breast cancer MDA-MB435, 1 mg/ml, acidized homogenate, Docetaxel release by HPLC
  activation efficiency (%): 93.5%
[2]; Table 34, Human pancreatic cancer Panc-1, 1 mg/ml, acidized homogenate, Docetaxel release by HPLC
  activation efficiency (%): 86.9%
[3]; Table 34, Human colon cancer HT-29, 1 mg/ml, acidized homogenate, Docetaxel release by HPLC
  activation efficiency (%): 83.9%
[4]; Table 34, Human renal cancer OS-RC-2, 1 mg/ml, acidized homogenate, Docetaxel release by HPLC
  activation efficiency (%): 90.9%
[5]; Table 34, Human liver cancer Hepg2, 1 mg/ml, acidized homogenate, Docetaxel release by HPLC
  activation efficiency (%): 76.3%
[6]; Table 34, Human prostate cancer PC-3, 1 mg/ml, acidized homogenate, Docetaxel release by HPLC
  activation efficiency (%): 76.1%
[7]; Table 34, Human non-small cell lung cancer A549, 1 mg/ml, acidized homogenate, Docetaxel release by HPLC
  activation efficiency (%): 91.2%
[8]; Table 34, Human ovarian cancer SK-OV-3, 1 mg/ml, acidized homogenate, Docetaxel release by HPLC
  activation efficiency (%): 93.1%
[9]; Table 34, Human chronic leukemia K562, 1 mg/ml, acidized homogenate, Docetaxel release by HPLC
  activation efficiency (%): 69.0%
Human heart; Table 34, Human heart, 1 mg/ml, acidized homogenate, Docetaxel release by HPLC
  activation efficiency (%): 12.2%
Tumor CD8+ T cells; Table 39, CD8 positive cells in CD45 positive cells of tumor, flow cytometry, drugs 13.2 μmol/kg, PDL1-antibody 5 μg/kg
  CD8: CD45 (%): 18.9%
D121 lung tumor cells; [11]
  Size of tumor (mm^3) Day 18: 271.36 ± 157.56 mm^3
  inhibitory rate on tumor % Day 18: 83.25%
D121 lung tumor cells
  Effect together with PDL1-antibody in promoting immunization and treatment, in words: excellent synergistic effect
  Treatment effects on C57 mice, in words: greatly improved

## COCCOCC(=O)N[C@H](C)C(=O)N[C@H](C)C(=O)N[C@H](CC(N)=O)C(=O)Nc1ccc(COC(=O)OC(C(=O)OC2C[C@@]3(O)C(OC(=O)c4ccccc4)[C@@H]4C5(OC(C)=O)COC5C[C@H](O)[C@@]4(C)C(=O)[C@H](OC(C)=O)C(=C2C)C3(C)C)[C@@H](NC(=O)c2ccccc2)c2ccccc2)cc1 (stereo in doubt) [S1′, 2-(2-methoxyethoxy) acetylamino-L-Ala-L-Ala-L-Asn-p-amino-benzyl-paclitaxel]
[1]; Human breast cancer MDA-MB435, 100 μg acidized homogenate pH6.0, 1 mg/ml, 37°
  Activation ratio (%) in homogenates from different tumor tissues: 92.3%
[1]; human breast cancer (MDA-MB435) tumor tissue homogenates pH6.0, 100 μg, 1 mg/ml, control compounds vs S1′-S4′
  activation efficiency (%): 94.3%
[2]; Human pancreatic cancer Panc-1, 100 μg acidized homogenate pH6.0, 1 mg/ml, 37°
  Activation ratio (%) in homogenates from different tumor tissues: 94.8%
[3]; Human colon cancer HT-29, 100 μg acidized homogenate pH6.0, 1 mg/ml, 37°
  Activation ratio (%) in homogenates from different tumor tissues: 79.4%
[4]; Human renal cancer OS-RC-2, 100 μg acidized homogenate pH6.0, 1 mg/ml, 37°
  Activation ratio (%) in homogenates from different tumor tissues: 86.4%
[5]; Human liver cancer Hepg2, 100 μg acidized homogenate pH6.0, 1 mg/ml, 37°
  Activation ratio (%) in homogenates from different tumor tissues: 95.3%
[6]; Human prostate cancer PC-3, 100 μg acidized homogenate pH6.0, 1 mg/ml, 37°
  Activation ratio (%) in homogenates from different tumor tissues: 97.3%
[7]; Human non-small cell lung cancer A549, 100 μg acidized homogenate pH6.0, 1 mg/ml, 37°
  Activation ratio (%) in homogenates from different tumor tissues: 86.4%
[8]; Human ovarian cancer SK-OV-3, 100 μg acidized homogenate pH6.0, 1 mg/ml, 37°
  Activation ratio (%) in homogenates from different tumor tissues: 88.4%
[9]; Human chronic leukemia K562, 100 μg acidized homogenate pH6.0, 1 mg/ml, 37°
  Activation ratio (%) in homogenates from different tumor tissues: 64.7%
Human heart; Human heart, 1 mg/ml, 37°
  Activation ratio (%) in homogenates from different tumor tissues: none
Tumor CD8+ T cells; D121 immunized C57 mice (Example 23), CD8 positive cells in CD45 positive cells of tumor
  CD8: CD45 (%): 19.6%
D121 lung tumor cells; [12]
  Size of tumor (mm^3) Day 18: 237.60 ± 156.42 mm^3
  inhibitory rate on tumor % Day 18: 84.9%
D121 lung tumor cells
  Effect together with PDL1-antibody in promoting immunization and treatment, in words: excellent synergistic effect
  Treatment effects on C57 mice, in words: greatly improved

## CCCCCOC(=O)Nc1nc(=O)n([C@@H]2O[C@H](C)[C@@H](OC(=O)OCc3ccc(NC(=O)[C@H](CC(N)=O)NC(=O)[C@H](C)NC(=O)[C@H](C)NC(=O)CCCCCCC(=O)NO)cc3)[C@H]2O)cc1F [Compound S3, 4-N—(N—(N—(N-(8-(N-hydroxylamino)-1,8-octandioic acid-1-monoacyl)-L-alanyl)-L-alanyl)-L-asparaginyl)-amino benzyl alcohol-capecitabine-carbonic acid diester]
[1]; Human breast cancer MDA-MB435 tumor tissue homogenate (30 μg/ml), 1 mg/ml compound
  Activation Efficiencies (%): 70.1%
[2]; Human pancreatic cancer Panc-1 tumor tissue homogenate (30 μg/ml), 1 mg/ml compound
  Activation Efficiencies (%): 91.6%
[3]; Human colon cancer HT-29 tumor tissue homogenate (30 μg/ml), 1 mg/ml compound
  Activation Efficiencies (%): 81.7%
[4]; Human renal cancer OS-RC-2 tumor tissue homogenate (30 μg/ml), 1 mg/ml compound
  Activation Efficiencies (%): 67.4%
[5]; Human liver cancer Hepg2 tumor tissue homogenate (30 μg/ml), 1 mg/ml compound
  Activation Efficiencies (%): 94.5%
[6]; Human prostate cancer PC-3 tumor tissue homogenate (30 μg/ml), 1 mg/ml compound
  Activation Efficiencies (%): 98.3%
[7]; Human non-small cell lung cancer A549 tumor tissue homogenate (30 μg/ml), 1 mg/ml compound
  Activation Efficiencies (%): 80.7%
[8]; Human ovarian cancer SK-OV-3 tumor tissue homogenate (30 μg/ml), 1 mg/ml compound
  Activation Efficiencies (%): 94.3%
[9]; Human chronic leukemia K562 tumor tissue homogenate (30 μg/ml), 1 mg/ml compound
  Activation Efficiencies (%): 93.2%
Human heart; Human heart homogenate, 1 mg/ml compound
  Activation Efficiencies (%): 1.6%
Tumor CD8+ T cells; D121 immunized C57 mice, 13.2 μmol/kg, ratio of CD8 positive cells in CD45 positive cells of tumor
  CD8: CD45 (%): 18.4%
D121 lung tumor cells; D121 immunized C57 mice, 13.2 μmol/kg weekly, PDL1 antibody 5 μg/kg where combined, Day 18
  Size of tumor (mm^3) Day 18: 425.67 ± 126.67 mm^3
D121 lung tumor cells
  Treatment effects on C57 mice, in words: greatly improved
